Results: PubChem BioAssay AID1259407 (Chemical Carcinogenesis Research Information System (CCRIS), 2018)
Activity calls are given as the source filed them. The rule behind the calls is not given here.

Test system: CCRIS mutagenicity, Ames/micronucleus/aberration tests
Assay: CCRIS mutagenicity studies

`CN(C)P(=O)(N(C)C)N(C)C` was tested, and the mutagenic call (Test System: AMES SALMONELLA TYPHIMURIUM, Strain/Indicator: TA97, Metabolic Activation: HAMSTER LIVER S-9, AROCLOR 1254 (10 OR 30%), Method: PREINCUBATION) was “inactive; negative”, the mutagenic call (Test System: AMES SALMONELLA TYPHIMURIUM, Strain/Indicator: TA97, Metabolic Activation: NONE, Method: PREINCUBATION) was “inactive; negative” and the mutagenic call (Test System: AMES SALMONELLA TYPHIMURIUM, Strain/Indicator: TA97, Metabolic Activation: NONE, Method: STANDARD PLATE) was “inactive; negative”. The mutagenic call (Test System: AMES SALMONELLA TYPHIMURIUM, Strain/Indicator: TA97, Metabolic Activation: RAT LIVER S-9, AROCLOR 1254 (10 OR 30%), Method: PREINCUBATION) was “inactive; negative”, the mutagenic call (Test System: AMES SALMONELLA TYPHIMURIUM, Strain/Indicator: TA97, Metabolic Activation: RAT, LIVER, S-9, AROCLOR 1254, Method: STANDARD PLATE) was “inactive; negative” and the mutagenic call (Test System: AMES SALMONELLA TYPHIMURIUM, Strain/Indicator: TA97, Metabolic Activation: RAT, LIVER, S-9, AROCLOR 1254, Method: SUSPENSION) was “active; positive”. For the same molecule, the mutagenic call (Test System: AMES SALMONELLA TYPHIMURIUM, Strain/Indicator: TA97, Metabolic Activation: S-9, Method: STANDARD PLATE) was “inactive; negative”, the mutagenic call (Test System: AMES SALMONELLA TYPHIMURIUM, Strain/Indicator: TA98, Metabolic Activation: HAMSTER LIVER S-9, AROCLOR 1254 (10 OR 30%), Method: PREINCUBATION) was “inactive; negative” and the mutagenic call (Test System: AMES SALMONELLA TYPHIMURIUM, Strain/Indicator: TA98, Metabolic Activation: NONE, Method: PREINCUBATION) was “inactive; negative”. For the same molecule, the mutagenic call (Test System: AMES SALMONELLA TYPHIMURIUM, Strain/Indicator: TA98, Metabolic Activation: NONE, Method: STANDARD PLATE) was “inactive; negative”, the mutagenic call (Test System: AMES SALMONELLA TYPHIMURIUM, Strain/Indicator: TA98, Metabolic Activation: RAT LIVER S-9, AROCLOR 1254 (10 OR 30%), Method: PREINCUBATION) was “inactive; negative” and the mutagenic call (Test System: AMES SALMONELLA TYPHIMURIUM, Strain/Indicator: TA98, Metabolic Activation: RAT, LIVER, S-9, AROCLOR 1254, Method: STANDARD PLATE) was “inactive; negative”. The mutagenic call (Test System: AMES SALMONELLA TYPHIMURIUM, Strain/Indicator: TA98, Metabolic Activation: RAT, LIVER, S-9, AROCLOR 1254, Method: SUSPENSION) was “active; positive”, the mutagenic call (Test System: AMES SALMONELLA TYPHIMURIUM, Strain/Indicator: TA98, Metabolic Activation: S-9, Method: STANDARD PLATE) was “inactive; negative” and the mutagenic call (Test System: AMES SALMONELLA TYPHIMURIUM, Strain/Indicator: TA100, Metabolic Activation: HAMSTER LIVER S-9, AROCLOR 1254 (10 OR 30%), Method: PREINCUBATION) was “inactive; negative”. The mutagenic call (Test System: AMES SALMONELLA TYPHIMURIUM, Strain/Indicator: TA100, Metabolic Activation: NONE, Method: PREINCUBATION) was “inactive; negative”, the mutagenic call (Test System: AMES SALMONELLA TYPHIMURIUM, Strain/Indicator: TA100, Metabolic Activation: NONE, Method: STANDARD PLATE) was “inactive; negative” and the mutagenic call (Test System: AMES SALMONELLA TYPHIMURIUM, Strain/Indicator: TA100, Metabolic Activation: NONE, Method: SUSPENSION) was “inactive; negative”. For the same molecule, the mutagenic call (Test System: AMES SALMONELLA TYPHIMURIUM, Strain/Indicator: TA100, Metabolic Activation: RAT LIVER S-9, AROCLOR 1254 (10 OR 30%), Method: PREINCUBATION) was “inactive; negative”, the mutagenic call (Test System: AMES SALMONELLA TYPHIMURIUM, Strain/Indicator: TA100, Metabolic Activation: RAT, LIVER, S-9, AROCLOR 1254 (4, 10 OR 30%), Method: PREINCUBATION) was “inactive; negative” and the mutagenic call (Test System: AMES SALMONELLA TYPHIMURIUM, Strain/Indicator: TA100, Metabolic Activation: RAT, LIVER, S-9, AROCLOR 1254 (10%), Method: STANDARD PLATE) was “inactive; negative”. For the same molecule, the mutagenic call (Test System: AMES SALMONELLA TYPHIMURIUM, Strain/Indicator: TA100, Metabolic Activation: RAT, LIVER, S-9, AROCLOR 1254, Method: PREINCUBATION) was “inactive; negative”, the mutagenic call (Test System: AMES SALMONELLA TYPHIMURIUM, Strain/Indicator: TA100, Metabolic Activation: RAT, LIVER, S-9, AROCLOR 1254, Method: STANDARD PLATE) was “inactive; negative” and the mutagenic call (Test System: AMES SALMONELLA TYPHIMURIUM, Strain/Indicator: TA100, Metabolic Activation: RAT, LIVER, S-9, AROCLOR 1254, Method: SUSPENSION) was “active; positive”. The mutagenic call (Test System: AMES SALMONELLA TYPHIMURIUM, Strain/Indicator: TA100, Metabolic Activation: S-9, Method: STANDARD PLATE) was “inactive; negative”, the mutagenic call (Test System: AMES SALMONELLA TYPHIMURIUM, Strain/Indicator: TA102, Metabolic Activation: NONE, Method: STANDARD PLATE) was “inactive; negative” and the mutagenic call (Test System: AMES SALMONELLA TYPHIMURIUM, Strain/Indicator: TA102, Metabolic Activation: S-9, Method: STANDARD PLATE) was “inactive; negative”. The mutagenic call (Test System: AMES SALMONELLA TYPHIMURIUM, Strain/Indicator: TA1535, Metabolic Activation: HAMSTER LIVER S-9, AROCLOR 1254 (10 OR 30%), Method: PREINCUBATION) was “inactive; negative”, the mutagenic call (Test System: AMES SALMONELLA TYPHIMURIUM, Strain/Indicator: TA1535, Metabolic Activation: NONE, Method: PREINCUBATION) was “inactive; negative” and the mutagenic call (Test System: AMES SALMONELLA TYPHIMURIUM, Strain/Indicator: TA1535, Metabolic Activation: NONE, Method: STANDARD PLATE) was “inactive; negative”. For the same molecule, the mutagenic call (Test System: AMES SALMONELLA TYPHIMURIUM, Strain/Indicator: TA1535, Metabolic Activation: RAT LIVER S-9, AROCLOR 1254 (10 OR 30%), Method: PREINCUBATION) was “inactive; negative”, the mutagenic call (Test System: AMES SALMONELLA TYPHIMURIUM, Strain/Indicator: TA1535, Metabolic Activation: RAT, LIVER, S-9, AROCLOR 1254, Method: STANDARD PLATE) was “inactive; negative” and the mutagenic call (Test System: AMES SALMONELLA TYPHIMURIUM, Strain/Indicator: TA1537, Metabolic Activation: NONE, Method: STANDARD PLATE) was “inactive; negative”. For the same molecule, the mutagenic call (Test System: AMES SALMONELLA TYPHIMURIUM, Strain/Indicator: TA1537, Metabolic Activation: RAT, LIVER, S-9, AROCLOR 1254, Method: STANDARD PLATE) was “inactive; negative”, the mutagenic call (Test System: AMES SALMONELLA TYPHIMURIUM, Strain/Indicator: TA1537, Metabolic Activation: RAT, LIVER, S-9, AROCLOR 1254, Method: SUSPENSION) was “active; positive” and the mutagenic call (Test System: AMES SALMONELLA TYPHIMURIUM, Strain/Indicator: TA1538, Metabolic Activation: NONE, Method: STANDARD PLATE) was “inactive; negative”. For the same molecule, the mutagenic call (Test System: AMES SALMONELLA TYPHIMURIUM, Strain/Indicator: TA1538, Metabolic Activation: RAT, LIVER, S-9, AROCLOR 1254, Method: STANDARD PLATE) was “inactive; negative”, the mutagenic call (Test System: CHINESE HAMSTER OVARY, Strain/Indicator: CHO/6-THIOGUANINE, Metabolic Activation: HAMSTER EMBRYO CELL-MEDIATED) was “inactive; negative” and the mutagenic call (Test System: CHINESE HAMSTER OVARY, Strain/Indicator: CHO/6-THIOGUANINE, Metabolic Activation: NONE) was “inactive; negative”. For the same molecule, the mutagenic call (Test System: CHINESE HAMSTER OVARY, Strain/Indicator: CHO/OUABAIN, Metabolic Activation: HAMSTER EMBRYO CELL-MEDIATED) was “inactive; negative”, the mutagenic call (Test System: CHINESE HAMSTER OVARY, Strain/Indicator: CHO/OUABAIN, Metabolic Activation: NONE) was “inactive; negative” and the mutagenic call (Test System: CHINESE HAMSTER V-79, Strain/Indicator: V-79 (HGPRT)/6-THIOGUANINE, Metabolic Activation: NONE) was “inactive; negative”. For the same molecule, the mutagenic call (Test System: CHINESE HAMSTER V-79, Strain/Indicator: V-79 (HGPRT)/6-THIOGUANINE, Metabolic Activation: RAT, LIVER, S-9, PHENOBARBITAL AND BETA-NAPHTHOFLAVONE) was “inactive; negative”, the mutagenic call (Test System: CHINESE HAMSTER V-79, Strain/Indicator: V-79/6-THIOGUANINE, Metabolic Activation: NONE, Method: REPLATING) was “active; positive” and the mutagenic call (Test System: CHINESE HAMSTER V-79, Strain/Indicator: V-79/OUABAIN, Metabolic Activation: HAMSTER EMBRYO CELL-MEDIATED) was “inactive; negative”. For the same molecule, the mutagenic call (Test System: CHINESE HAMSTER V-79, Strain/Indicator: V-79/OUABAIN, Metabolic Activation: RAT, LIVER, S-15, PHENOBARBITAL AND 5,6-BENZOFLAVONE) was “inactive; negative”, the mutagenic call (Test System: MOUSE LYMPHOMA, Strain/Indicator: L5178Y (TK+/+)/OUABAIN, Metabolic Activation: NONE, Method: SUSPENSION/PLATE) was “active; positive” and the mutagenic call (Test System: MOUSE LYMPHOMA, Strain/Indicator: L5178Y (TK+/-)/TRIFLUOROTHYMIDINE, Metabolic Activation: RAT LIVER S-9, AROCLOR 1254, Method: SUSPENSION/PLATE) was “inactive; negative”. For the same molecule, the mutagenic call (Test System: MOUSE LYMPHOMA, Strain/Indicator: L5178Y (TK+/-)/TRIFLUROTHYMIDINE, Metabolic Activation: NONE, Method: SUSPENSION/PLATE) was “active; positive”, the mutagenic call (Test System: MOUSE LYMPHOMA, Strain/Indicator: L5178Y (TK+/TK-), Metabolic Activation: NONE, Method: MICROWELL) was “active; positive” and the mutagenic call (Test System: MOUSE LYMPHOMA, Strain/Indicator: L5178Y (TK+/TK-), Metabolic Activation: RAT, LIVER, S-9, AROCLOR 1254, Method: SUSPENSION/PLATE) was “inactive; negative”. For the same molecule, the mutagenic call (Test System: MOUSE LYMPHOMA, Strain/Indicator: L5178Y (TK+/TK-), Metabolic Activation: RAT, LIVER, S-9, Method: SUSPENSION/PLATE) was “inactive; negative”, the mutagenic call (Test System: MOUSE LYMPHOMA, Strain/Indicator: L5178Y (TK+/TK-), Metabolic Activation: S-9, Method: MICROWELL) was “active; positive” and the mutagenic call (Test System: UDS RAT HEPATOCYTES, Strain/Indicator: THY INCORP, Metabolic Activation: NONE, Method: LIQUID SCINTILLATION COUNTING) was “active; positive”.
